Test results as given in EP3046573B1, “AMYLIN ANALOGUES” (Zealand Pharma A/S, priority 2013, dated 2015).
Like-named read-outs stand apart in the source and are kept apart here. Numbered stars: 1 amine (or outer) side, 2 acyl side, 3 side chain; on linkers, the order of the positions; unused ones are H or OH. Bridge positions count the residues as written; N and C are the ends. Square brackets hold non-standard residues; d marks the D form. Peptide text beside a SMILES is read from it. * marks the point of attachment. C20 diacid = O=C(O)CCCCCCCCCCCCCCCCCCC(=O)*; γGlu = O=C(O)[C@H](CCC(=O)[*:2])N[*:1]; NMeI = CC[C@H](C)[C@H](NC)C(=O)O; Sar = CNCC(=O)O

Assays:
[1] = Solubility assessment (turbidity absorbance at 325 nm); type: physicochemical; conditions: stock 2 mg/ml diluted 1:1, ambient temperature (typically 25°C), n=1; for Solubility, Acetate buffer pH 4: 100 mM acetate buffer pH 4.0; for Solubility, Acetate buffer pH 5: 100 mM acetate buffer pH 5.0; for Solubility, Histidine buffer pH 6: 100 mM histidine buffer pH 6.0; for Solubility, Histidine buffer pH 7: 100 mM histidine buffer pH 7.0; for Solubility, Phosphate buffer pH 6: 100 mM phosphate buffer pH 6.0; for Solubility, Phosphate buffer pH 7: 100 mM phosphate buffer pH 7.0; for Solubility, Phosphate buffer pH 7.5: 100 mM phosphate buffer pH7.5
In short: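 Turbidity read as absorbance at 325 nm (also 280 nm), single samples at ambient temperature (typically 25°C); ≤ 0.02 units counts as ≥ 1 mg/ml soluble. Samples made by 1:1 dilution of a 2 mg/ml acidic stock into 100 mM acetate, histidine or phosphate buffers, pH 4.0–7.5.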

[2] = biological target: T1, human amylin receptor 3 (hAMYR3) consisting of hCTR2 co-expressed with human Receptor Activity Modifying Protein 3 (hRAMP3) (Homo sapiens, UniProt O60896+P30988); assay: hAMYR3 assay: induction of cAMP (AlphaScreen cAMP Assay kit) in COS7 cells expressing hAMYR3; type: cell-based
T1 construct: expressed in transfected cells
T1 sequence (P30988 25-474): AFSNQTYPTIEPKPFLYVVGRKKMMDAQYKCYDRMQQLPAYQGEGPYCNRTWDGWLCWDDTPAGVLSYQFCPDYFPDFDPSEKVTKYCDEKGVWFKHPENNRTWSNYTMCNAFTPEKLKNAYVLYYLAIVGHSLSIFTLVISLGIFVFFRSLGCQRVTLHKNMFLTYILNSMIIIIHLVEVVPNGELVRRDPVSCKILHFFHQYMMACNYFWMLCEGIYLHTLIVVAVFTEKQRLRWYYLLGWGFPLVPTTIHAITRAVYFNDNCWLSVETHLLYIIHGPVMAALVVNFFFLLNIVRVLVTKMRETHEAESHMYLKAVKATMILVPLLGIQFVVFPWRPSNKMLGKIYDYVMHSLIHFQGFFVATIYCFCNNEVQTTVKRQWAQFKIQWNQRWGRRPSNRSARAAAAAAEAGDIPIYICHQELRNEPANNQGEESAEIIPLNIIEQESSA
T1 sequence (O60896 24-148 partner): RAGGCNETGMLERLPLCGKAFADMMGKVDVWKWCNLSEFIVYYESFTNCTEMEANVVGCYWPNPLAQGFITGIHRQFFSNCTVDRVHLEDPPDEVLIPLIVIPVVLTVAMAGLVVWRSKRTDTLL
In short: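 cAMP accumulation read by AlphaScreen in lysates of RAMP-naive COS7 cells stably transfected with hCTR2 plus hRAMP3. Cells exposed to peptide dilutions for 15 min, 37° C, with 100 µM IBMX; 4PL fitting gave EC50 and efficacy relative to pramlintide.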

[3] = biological target: T2, human calcitonin receptor (hCTR2) (Homo sapiens, UniProt P30988); assay: hCTR2 assay: induction of cAMP (AlphaScreen cAMP Assay kit) in COS7 cells expressing hCTR2; type: cell-based
T2 construct: expressed in transfected cells
T2 sequence (P30988 25-474): T1 sequence (P30988 25-474)
In short: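 cAMP read-out by AlphaScreen after cell lysis; EC50 and % efficacy vs pramlintide from 4-parameter logistic fitting. Agonist stimulation: hCTR2-COS7 stable cells, 15 min, 37° C, 100 µM IBMX, 0.1% casein, Tyrode/HEPES pH 7.4.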

[4] = cAMP induction in COS7 cells expressing hAMYR3, average of a minimum of 3 determinations, read-out: hAMY R3 EC50
[5] = cAMP induction in COS7 cells expressing hCTR2, average of a minimum of 3 determinations, read-out: hCTR2 EC50

Solubility, Acetate buffer pH 4 [1] | Solubility, Acetate buffer pH 5 [1] | Solubility, Histidine buffer pH 6 [1] | Solubility, Histidine buffer pH 7 [1] | Solubility, Phosphate buffer pH 6 [1] | Solubility, Phosphate buffer pH 7 [1] | Solubility, Phosphate buffer pH 7.5 [1] | EC50 [2, 4] [nM] | EC50 [3, 5] [nM] | SMILES | EC50 [2] [nM] | EC50 [3] [nM]
SS (SS indicates solubility ≥ 1mg/ml) | SS (SS indicates solubility ≥ 1mg/ml) | II (II indicates solubility ≤ 1 mg/ml) | SS (SS indicates solubility ≥ 1mg/ml) | SS (SS indicates solubility ≥ 1mg/ml) | SS (SS indicates solubility ≥ 1mg/ml) | SS (SS indicates solubility ≥ 1mg/ml) | 6.1 | 0.73 | CC[C@H](C)[C@@H](C(=O)N[C@@H](CC(C)C)C(=O)N[C@@H](CO)C(=O)N[C@@H](CO)C(=O)N[C@H](C(=O)N[C@@H](CC(N)=O)C(=O)N[C@H](C(=O)NCC(=O)N[C@@H](CO)C(=O)N[C@@H](CC(N)=O)C(=O)N[C@H](C(=O)N1CCC[C@H]1C(=O)NC)[C@@H](C)O)C(C)C)[C@@H](C)O)N(C)C(=O)CN(C)C(=O)[C@H](Cc1ccccc1)NC(=O)[C@H](CC(N)=O)NC(=O)[C@H](CC(N)=O)NC(=O)[C@H](CO)NC(=O)[C@H](CO)NC(=O)[C@H](CCCNC(=N)N)NC(=O)[C@H](Cc1c[nH]cn1)NC(=O)[C@H](CC(C)C)NC(=O)[C@H](Cc1ccccc1)NC(=O)[C@H](CCC(=O)O)NC(=O)[C@H](C)NC(=O)[C@H](CC(C)C)NC(=O)[C@H](CCCNC(=N)N)NC(=O)[C@H](CCC(N)=O)NC(=O)[C@@H](NC(=O)[C@H](C)NC(=O)[C@@H]1CSSC[C@H](NC(=O)[C@H](CCCNC(=N)N)NC(=O)CC[C@H](NC(=O)CCCCCCCCCCCCCCCCCCC(=O)O)C(=O)O)C(=O)N[C@@H](CC(N)=O)C(=O)N[C@@H]([C@@H](C)O)C(=O)N[C@@H](C)C(=O)N[C@@H]([C@@H](C)O)C(=O)N1)[C@@H](C)O [Compound 153, [19CD]-isoGlu-RC()NTATC()ATQRLAEFLHRSSNNF-Gly(Me)-Ile(Me)-LSSTNVGSNTP-NHMe] ({C20 diacid-γGlu}-RCNTATCATQRLAEFLHRSSNNF[Sar][NMeI]LSSTNVGSNTP-NHMe; disulfide 2-7) | – | –
SS (SS indicates solubility ≥ 1mg/ml) | SS (SS indicates solubility ≥ 1mg/ml) | II (II indicates solubility ≤ 1 mg/ml) | II (II indicates solubility ≤ 1 mg/ml) | II (II indicates solubility ≤ 1 mg/ml) | II (II indicates solubility ≤ 1 mg/ml) | II (II indicates solubility ≤ 1 mg/ml) | 5.3 | 0.67 | CC[C@H](C)[C@@H](C(=O)N[C@@H](CC(C)C)C(=O)N[C@@H](CO)C(=O)N[C@@H](CO)C(=O)N[C@H](C(=O)N[C@@H](CC(N)=O)C(=O)N[C@H](C(=O)NCC(=O)N[C@@H](CO)C(=O)N[C@@H](CC(N)=O)C(=O)N[C@H](C(=O)N[C@@H](Cc1ccc(O)cc1)C(=O)NC)[C@@H](C)O)C(C)C)[C@@H](C)O)N(C)C(=O)CN(C)C(=O)[C@H](Cc1ccccc1)NC(=O)[C@H](CC(N)=O)NC(=O)[C@H](CC(N)=O)NC(=O)[C@H](CO)NC(=O)[C@H](CO)NC(=O)[C@H](CCCNC(=N)N)NC(=O)[C@H](Cc1c[nH]cn1)NC(=O)[C@H](CC(C)C)NC(=O)[C@H](Cc1ccccc1)NC(=O)[C@H](CCC(=O)O)NC(=O)[C@H](C)NC(=O)[C@H](CC(C)C)NC(=O)[C@H](CCCNC(=N)N)NC(=O)[C@H](CCC(N)=O)NC(=O)[C@@H](NC(=O)[C@H](C)NC(=O)[C@@H]1CSSC[C@H](NC(=O)[C@H](CCCNC(=N)N)NC(=O)CC[C@H](NC(=O)CCCCCCCCCCCCCCCCCCC(=O)O)C(=O)O)C(=O)N[C@@H](CC(N)=O)C(=O)N[C@@H]([C@@H](C)O)C(=O)N[C@@H](C)C(=O)N[C@@H]([C@@H](C)O)C(=O)N1)[C@@H](C)O [Compound 155, [19CD]-isoGlu-RC()NTATC()ATQRLAEFLHRSSNNF-Gly(Me)-Ile(Me)-LSSTNVGSNTY-NHMe] ({C20 diacid-γGlu}-RCNTATCATQRLAEFLHRSSNNF[Sar][NMeI]LSSTNVGSNTY-NHMe; disulfide 2-7) | – | –
II (II indicates solubility ≤ 1 mg/ml) | SS (SS indicates solubility ≥ 1mg/ml) | SS (SS indicates solubility ≥ 1mg/ml) | SS (SS indicates solubility ≥ 1mg/ml) | SS (SS indicates solubility ≥ 1mg/ml) | SS (SS indicates solubility ≥ 1mg/ml) | SS (SS indicates solubility ≥ 1mg/ml) | 0.16 | 0.072 | CC[C@H](C)[C@@H](C(=O)N[C@@H](CC(C)C)C(=O)N[C@@H](CO)C(=O)N[C@@H](CO)C(=O)N[C@H](C(=O)N[C@@H](CC(=O)O)C(=O)N[C@H](C(=O)NCC(=O)N[C@@H](CO)C(=O)N[C@@H](CC(=O)O)C(=O)N[C@H](C(=O)N1CCC[C@H]1C(N)=O)[C@@H](C)O)C(C)C)[C@@H](C)O)N(C)C(=O)[C@H](C)NC(=O)CN(C)C(=O)[C@H](Cc1ccccc1)NC(=O)[C@H](CO)NC(=O)[C@H](CO)NC(=O)[C@H](CCCNC(=N)N)NC(=O)[C@H](Cc1c[nH]cn1)NC(=O)[C@H](CC(C)C)NC(=O)[C@H](Cc1ccccc1)NC(=O)[C@H](CCC(=O)O)NC(=O)[C@H](C)NC(=O)[C@H](CC(C)C)NC(=O)[C@H](CCCNC(=N)N)NC(=O)[C@H](CC(=O)O)NC(=O)[C@@H](NC(=O)[C@H](C)NC(=O)[C@@H]1CSSC[C@H](NC(=O)[C@H](Cc2c[nH]c3ccccc23)NC(=O)CC[C@H](NC(=O)CCCCCCCCCCCCCCCCCCC(=O)O)C(=O)O)C(=O)NCC(=O)N[C@@H]([C@@H](C)O)C(=O)N[C@@H](C)C(=O)N[C@@H]([C@@H](C)O)C(=O)N1)[C@@H](C)O [Compound 157, [19CD]-isoGlu-WC()GTATC()ATDRLAEFLHRSSF-Gly(Me)-A-Ile(Me)-LSSTDVGSDTP-NH2] ({C20 diacid-γGlu}-WCGTATCATDRLAEFLHRSSF[Sar]A[NMeI]LSSTDVGSDTP-NH2; disulfide 2-7) | – | –

SMILES | Solubility, Acetate buffer pH 4 [1] | Solubility, Acetate buffer pH 5 [1] | Solubility, Histidine buffer pH 6 [1] | Solubility, Histidine buffer pH 7 [1] | Solubility, Phosphate buffer pH 6 [1] | Solubility, Phosphate buffer pH 7 [1] | Solubility, Phosphate buffer pH 7.5 [1] | EC50 [2, 4] [nM] | EC50 [3, 5] [nM] | EC50 [2] [nM] | EC50 [3] [nM]
CC[C@H](C)[C@@H](C(=O)N[C@@H](CC(C)C)C(=O)N[C@@H](CO)C(=O)N[C@@H](CO)C(=O)N[C@H](C(=O)N[C@@H](CC(N)=O)C(=O)N[C@H](C(=O)NCC(=O)N[C@@H](CO)C(=O)N[C@@H](CC(N)=O)C(=O)N[C@H](C(=O)N[C@@H](Cc1ccc(O)cc1)C(=O)NC)[C@@H](C)O)C(C)C)[C@@H](C)O)N(C)C(=O)[C@H](C)NC(=O)CN(C)C(=O)[C@H](Cc1ccccc1)NC(=O)[C@H](CC(N)=O)NC(=O)[C@H](CC(N)=O)NC(=O)[C@H](CO)NC(=O)[C@H](CO)NC(=O)[C@H](CCCNC(=N)N)NC(=O)[C@H](Cc1c[nH]cn1)NC(=O)[C@H](CC(C)C)NC(=O)[C@H](Cc1ccccc1)NC(=O)[C@H](CCC(=O)O)NC(=O)[C@H](C)NC(=O)[C@H](CC(C)C)NC(=O)[C@H](CCCNC(=N)N)NC(=O)[C@H](CCC(N)=O)NC(=O)[C@@H](NC(=O)[C@H](C)NC(=O)[C@@H]1CSSC[C@H](NC(=O)[C@H](CCCNC(=N)N)NC(=O)CC[C@H](NC(=O)CCCCCCCCCCCCCCCCCCC(=O)O)C(=O)O)C(=O)N[C@@H](CC(N)=O)C(=O)N[C@@H]([C@@H](C)O)C(=O)N[C@@H](C)C(=O)N[C@@H]([C@@H](C)O)C(=O)N1)[C@@H](C)O [Compound 154, [19CD]-isoGlu-RC()NTATC()ATQRLAEFLHRSSNNF-Gly(Me)-A-Ile(Me)-LSSTNVGSNTY-NHMe] ({C20 diacid-γGlu}-RCNTATCATQRLAEFLHRSSNNF[Sar]A[NMeI]LSSTNVGSNTY-NHMe; disulfide 2-7) | SS (SS indicates solubility ≥ 1mg/ml) | SS (SS indicates solubility ≥ 1mg/ml) | SS (SS indicates solubility ≥ 1mg/ml) | II (II indicates solubility ≤ 1 mg/ml) | II (II indicates solubility ≤ 1 mg/ml) | II (II indicates solubility ≤ 1 mg/ml) | II (II indicates solubility ≤ 1 mg/ml) | – | – | 6.3 | 0.55
